Experimental data as given in US20240327414A1, “CYCLOPROPYL-(HETERO)ARYL-SUBSTITUTED ETHYL- SULFONE / SULFOXIMINE-PYRIDINE N-OXIDE DERIVATIVES” (Boehringer Ingelheim Vetmedica GmbH, priority 2023, published 2024).

Legend:
adult C. felis fleas [1] = assay: Ingestion activity against adult Ctenocephalides felis (alternative method, membrane feeding, mortality); conditions: bovine blood, mortality at 48 hours post-treatment
Method: Selected N-oxide compounds of formula (I), (Ia) and (Ib) and compound “P23” of WO 2016/030229 dissolved in 100% DMSO are diluted in bovine blood with sodium heparin anti-coagulant. The resulting formulation is offered via an artificial membrane feeding system to approximately 15 adult C. felis fleas previously dispensed into 24-well plates. The plates are then incubated in a double-chambered device. Visual evaluation for mortality is performed at 48 hours post-treatment. Compound efficacy at a given dose is expressed as percentage mortality and determined by normalization to positive and negative controls. A dose response series is implemented to determine EC50 values.
Example 7: Screening Method to Test Ingestion Activity of N-Oxide Compounds of Formula (I), (Ia) or (Ib) Against Adult Ctenocephalides felis (Alternative Method)
N-oxide compounds of formula (I), (Ia) and (Ib) dissolved in 100% DMSO are diluted in bovine blood with sodium heparin anti-coagulant. The resulting formulation is offered via an artificial membrane feeding system to approximately 15 adult C. felis fleas previously dispensed into 24-well plates. The plates are then incubated in a double-chambered device. Visual evaluation for mortality is performed at 48 hours post-treatment. Compound efficacy at a given dose is expressed as percentage mortality and determined by normalization to positive and negative controls. A dose response series is implemented to determine EC50 values.
The structurally closest prior art compound “P23” of WO 2016/030229 is characterized vis-à-vis selected N-oxide compounds of formula (I), (Ia) and (Ib) with regard to their potency in in vitro screening assay to test ingestion activity against adult fleas (Ctenocephalides felis) (alternative method according to Example 7).

[2] = tested on: adult Ctenocephalides felis fleas; assay: Contact activity against adult Ctenocephalides felis; conditions: adult C. felis, mortality at 72 hours post-treatment
Method: Example 4: Screening Method to Test Contact Activity of N-Oxide Compounds of Formula (I), (Ia) or (Ib) Against Adult Ctenocephalides felis
N-oxide compounds of formula (I), (Ia) and (Ib) dissolved in 100% DMSO are diluted in acetone to a desired concentration. The resulting formulation is used to coat the fibers of a 0.5-inch-long piece of pipe cleaner placed in a glass scintillation vial. The vial is capped with a rubber gasket and filter paper insert. After the acetone has evaporated, ten adult Ctenocephalides felis fleas are added to each vial. The vials are then incubated at 22° C., 80% relative humidity, and 12 hours of light/12 hours of dark until a visual evaluation for mortality is performed at 72 hours post-treatment. Compound efficacy at a given dose is expressed as percentage mortality and adjusted to remove background mortality observed in control vials containing DMSO only. A dose response series of treated vials is implemented to determine EC50 values.

adult C. felis fleas [3] = assay: Ingestion activity against adult Ctenocephalides felis (membrane feeding, motility); conditions: 48 h, ingestion in bovine blood, % motility reduction 48h post treatment
Method: Example 6: Screening Method to Test Ingestion Activity of N-Oxide Compounds of Formula (I), (Ia) or (Ib) Against Adult Ctenocephalides felis
N-oxide compounds of formula (I), (Ia) and (Ib) dissolved in 100% DMSO are added to bovine blood and offered via an artificial membrane feeding system to adult C. felis fleas. The motility of fleas is then visually inspected 48h post treatment. Efficacy is expressed in % motility reduction compared to controls containing blood treated with DMSO only. A dose response series is implemented to determine EC50 values.

Plutella xylostella = assay: Insecticidal test on Plutella xylostella; type: in vivo; conditions: 144 h, Chinese cabbage seedling dip, 6 days after the dip treatment, read-out: activity level (corrected mortality rate)
Method: Example 15: Insecticidal Test on Plutella xylostella
The N-oxide compounds of formula (I), (Ia) and (Ib) of the present invention or salts thereof are separately dispersed in water and diluted to 500 ppm. Ten adults of Plutella xylostella are released onto Chinese cabbage seedlings and allowed to lay eggs thereon. 2 days after the release of the adults, the seedling is dipped in the dispersion for about 30 seconds. After air dried, the seedling is kept in a room at 25° C. 6 days after the dip treatment, the numbers of the dead and alive insects are counted. The corrected mortality rate is calculated according to the following formula and the insecticidal activity is evaluated according to the following criteria.
(§1) [formula] [formula] • A: the corrected mortality rate is 100% • B: the corrected mortality rate is 90 to 99% • C: the corrected mortality rate is 80 to 89% • D: the corrected mortality rate is 50 to 79%

Laodelphax striatellus = assay: Insecticidal test on Laodelphax striatellus; type: in vivo; conditions: 192 h, rice seedling dip, 3rd-instar nymphs, 8 days after inoculation, read-out: activity level (corrected mortality rate)
Method: Example 16: Insecticidal Test on Laodelphax striatellus
The N-oxide compounds of formula (I), (Ia) and (Ib) of the present invention or salts thereof are separately dispersed in water and diluted to 500 ppm. Rice plant seedlings are dipped in the dispersion for about 30 seconds. After air dried, the seedlings are put into a separate glass test tube and inoculated with ten 3rd-instar nymphs of Laodelphax striatellus and then the glass test tube is kept in a room at 25° C. 8 days after the inoculation, the numbers of the dead and alive insects are counted. The corrected mortality rate is calculated according to the following formula and the insecticidal activity is evaluated according to the following criteria.
as §1

Spodoptera litura = assay: Insecticidal test on Spodoptera litura; type: in vivo; conditions: foliar, 192 h, cabbage leaf dip, 2nd-instar larvae, 8 days after inoculation, read-out: activity level (corrected mortality rate)
Method: Example 14: Insecticidal Test on Spodoptera litura
The N-oxide compounds of formula (I), (Ia) and (Ib) of the present invention or salts thereof are separately dispersed in water and diluted to 500 ppm. Cabbage leaves are dipped in the dispersion for about 30 seconds. After air dried, the leaves are placed in a plastic Petri dish with a diameter of 9 cm and inoculated with ten 2nd-instar larvae of Spodoptera litura, after which the dish is closed and then allowed to stand in a room at 25° C. 8 days after the inoculation, the numbers of the dead and alive insects are counted. The corrected mortality rate is calculated according to the following formula and the insecticidal activity is evaluated according to the following criteria.
as §1

A. aegypti L1 larvae = assay: Screening against larvae of Aedes aegypti; conditions: 48 h at 27° C., percentage of mortality
Method: Example 3: Screening Method to Test Activity of N-Oxide Compounds of Formula (I), (Ia) or (Ib) Against Larvae of Aedes aegypti
Eight A. aegypti L1 larvae in a total volume of 64 μL water are added to 384-well microplates containing N-oxide compounds of formula (I), (Ia) and (Ib) formulated in 100% DMSO. The plates are incubated for 48 h at 27° C. Individual well images are acquired and analyzed using a pipeline to quantitatively assess the amount of larvae biomass accumulating at the bottom of the well. The efficacy of a compound at a given dose is expressed as “percentage of mortality” and determined by comparison to average biomass descriptors of positive and negative control wells containing 1.0 μM Fipronil or DMSO only, respectively. Dose response assay are conducted to determine an EC50 value.

[4] = tested on: adult R. sanguineus ticks; assay: Contact activity against adult Rhipicephalus sanguineus; conditions: mortality at 48 hours post-treatment
Method: Example 5: Screening Method to Test Contact Activity of N-Oxide Compounds of Formula (I), (Ia) or (Ib) Against Adult Rhipicephalus sanguineus
N-oxide compounds of formula (I), (Ia) and (Ib) formulated in 100% DMSO are diluted in a solution containing acetone and Triton X-100 (0.02%). The resulting formulation is used to coat the inner walls of glass scintillation vials and the filter paper covering the cap of the vial. Once dried, ten adult R. sanguineus ticks are added to the vials. The vials are incubated at 24° C., 95% relative humidity, and 12 hours of light/12 hours of dark until evaluation. Ticks are visually evaluated for mortality at 48 hours post-treatment. Compound efficacy at a given dose is expressed as percentage mortality. A dose response series was implemented to determine EC50 values.

Row | Structure (SMILES) | EC50 (adult C. felis fleas [3]) | EC50 (adult C. felis fleas [1]) | EC50 [2] | mortality at 500 ppm (Plutella xylostella) | mortality at 500 ppm (Laodelphax striatellus) | mortality at 500 ppm (Spodoptera litura) | EC50 (A. aegypti L1 larvae) | EC50 [4]
1 | CCS(=O)(=O)c1cc(-c2noc(C3CC3)n2)cnc1-c1nc2cc(C(F)(F)C(F)(F)F)n[n+]([O-])c2n1C [Compound 1, 6-[5-(5-cyclopropyl-1,2,4-oxadiazol-3-yl)-3-(ethanesulfonyl)pyridin-2-yl]-7-methyl-3-(1,1,2,2,2-pentafluoroethyl)-7H-imidazo[4,5-c]pyridazin-1-ium-1-olate] | < 10 µM | 0.783 µM | 10 to 100 µM | 100% | 100% | – | – | –
2 | CCS(=O)(=O)c1cc(-c2noc(C3CC3)n2)cnc1-c1nc2cc(C(F)(F)C(F)(F)F)[n+]([O-])nc2n1C [Compound 2, 6-[5-(5-cyclopropyl-1,2,4-oxadiazol-3-yl)-3-(ethanesulfonyl)pyridin-2-yl]-7-methyl-3-(1,1,2,2,2-pentafluoroethyl)-7H-imidazo[4,5-c]pyridazin-2-ium-2-olate] | < 10 µM | – | 10 to 100 µM | – | – | – | – | –
3 | CCS(=O)(=O)c1cc(-c2noc(C3CC3)n2)c[n+]([O-])c1-c1nc2cc(C(F)(F)C(F)(F)F)nnc2n1C [Compound 3, 5-(5-cyclopropyl-1,2,4-oxadiazol-3-yl)-3-(ethanesulfonyl)-2-[7-methyl-3-(1,1,2,2,2-pentafluoroethyl)-7H-imidazo[4,5-c]pyridazin-6-yl]pyridin-1-ium-1-olate] | < 10 µM | – | – | – | – | – | – | –
4 | CCS(=O)(=O)c1cc(-c2noc(C3CC3)n2)c[n+]([O-])c1-c1nc2cc(C(F)(F)C(F)(F)F)n[n+]([O-])c2n1C [Compound 4, 5-(5-cyclopropyl-1,2,4-oxadiazol-3-yl)-3-(ethanesulfonyl)-2-[7-methyl-1-oxido-3-(1,1,2,2,2-pentafluoroethyl)-7H-imidazo[4,5-c]pyridazin-1-ium-6-yl]pyridin-1-ium-1-olate] | 10 to 100 µM | – | – | – | – | – | – | –
5 | CCS(=O)(=O)c1cc(-c2noc(C3(C(F)(F)F)CC3)n2)cnc1-c1n(C)c2ncc(C(C)(F)F)cc2[n+]1[O-] [Compound 7] | – | 0.41 µM | – | – | – | – | – | –
6 | CCS(=O)(=O)c1cc(-c2noc(C3(C(F)(F)F)CC3)n2)cnc1-c1nc2cc(C(C)(F)F)n[n+]([O-])c2n1C [Compound 8] | < 10 µM | 0.141 µM | 10 to 100 µM | 100% | 100% | 100% | – | –
7 | CCS(=O)(=O)c1cc(-c2noc(C3CC3)n2)cnc1-c1nc2cc(C(C)(F)F)n[n+]([O-])c2n1C [Compound 39] | – | 0.454 µM | – | 100% | 100% | – | – | –
8 | CCS(=O)(=O)c1cc(-c2noc(C3CC3)n2)cnc1-c1nc2cc(C(C)(F)F)[n+]([O-])nc2n1C [Compound 40] | – | 0.807 µM | – | – | – | – | – | –
9 | CCS(=O)(=O)c1cc(-c2ccc(C3(C#N)CC3)cc2)c[n+]([O-])c1-c1nc2cc(C(F)(F)F)cn(CC(F)F)c-2c1F [Compound 44, 5-[4-(1-cyanocyclopropyl)phenyl]-2-[4-(2,2-difluoroethyl)-3-fluoro-6-(trifluoromethyl)-4H-pyrrolo[3,2-b]pyridin-2-yl]-3-(ethanesulfonyl)pyridin-1-ium-1-olate] | – | – | 10 to 100 µM | – | – | – | – | –

Further lines, with some results ahead:

Row | EC50 (adult C. felis fleas [3]) | Structure (SMILES) | EC50 (adult C. felis fleas [1]) | EC50 [2] | mortality at 500 ppm (Plutella xylostella) | mortality at 500 ppm (Laodelphax striatellus) | mortality at 500 ppm (Spodoptera litura) | EC50 (A. aegypti L1 larvae) | EC50 [4]
10 | 10 to 100 µM | CCS(=O)(=O)c1cc(-c2ccc(C3CC3)cc2)c[n+]([O-])c1-c1nc2cc(C(F)(F)C(F)(F)F)cnc2n1C [Compound 23] | – | – | – | – | – | – | –
11 | < 10 µM | CCS(=O)(=O)c1cc(-c2ccc(C3(F)CC3)cc2)c[n+]([O-])c1-c1nc2cc(C(F)(F)C(F)(F)F)nnc2n1C [Compound 27] | 0.46 µM | – | 100% | 100% | – | < 0.04 µM | –
12 | 10 to 100 µM | CCS(=O)(=O)c1cc(-c2cc(C3CC3)ccn2)cnc1-c1nc2cc(C(F)(F)C(F)(F)F)c[n+]([O-])c2n1C [Compound 29] | – | – | – | – | – | 0.04 to 0.05 µM | –
13 | < 10 µM | CCS(=O)(=O)c1cc(-c2noc(C3CC3)n2)cnc1-c1nc2cc(C(F)(F)C(F)(F)F)c[n+]([O-])c2n1C [Compound 33] | 0.889 µM | < 10 µM | 100% | 100% | – | – | 10 to 100 µM
14 | 10 to 100 µM | CCS(=O)(=O)c1cc(-c2ccc(C3(F)CC3)cc2)cnc1-c1nc2cc(C(F)(F)C(F)(F)F)n[n+]([O-])c2n1C [Compound 36] | 1.06 µM | – | 100% | 100% | – | < 0.04 µM | 10 to 100 µM
15 | < 10 µM | CCS(=O)(=O)c1cc(-c2ccc(C3(F)CC3)cc2)c[n+]([O-])c1-c1nc2cc(C(F)(F)C(F)(F)F)n[n+]([O-])c2n1C [Compound 45] | – | – | – | – | – | < 0.04 µM | –
